Values quoted from earlier work as cited in patent US8288116B2, “Methods and compositions for isolating metastatic cancer cells, and use in measuring metastatic potential of a cancer thereof” (The Research Foundation of State University of New York, priority 2000, dated 2012).

Tested on: patients with cancer
Details: trials in patients with cancer

Compound	anti-metastatic, anti-invasive effects
CC1(C)SCCN(S(=O)(=O)c2ccc(Oc3ccncc3)cc2)[C@H]1C(=O)NO [AG3340]	not produced obvious evidence
CNC(=O)[C@@H](NC(=O)[C@H](CC(C)C)[C@H](O)C(=O)NO)C(C)(C)C [Marimastat]	not produced obvious evidence
angiostatin	not produced obvious evidence
endostatin	not produced obvious evidence
